{"source": "patent EP0227593A1", "about": "“Use of chelating agents” (THE HOSPITAL FOR SICK CHILDREN, priority 1985, dated 1987)", "key": {"patient's PB blast cells": {"system": "patient's PB blast cells", "assay": "ALL blast colony assay", "format": "cell-based", "conditions": "Homo sapiens", "protocol": "ALL Blast Colony Assay: The assay we used is a modification of previously described methods. T-cell depletion: Post-Ficoll mononuclear BM cells were incubated with neuraminidase sensitized sheep erthrocytes (SRBC) at 4°C for 2 hours, followed by gradient centrifugation. This procedure was repeated twice. Cells at the interface contained less than 0.5 % T-cells as assessed by AET sensitized SRBC rosette formation and using anti-Leu-4 and anti-Leu-5 monoclonal anti-T-cell antibodies (Becton Dickinson, CA). T-lymphocytes were obtained by recovery of rosetted cells from the pellet following lysis with Tris-buffered ammonium chloride (Sigma, St. Louis, MO). Feeder Cells: Post-Ficoll normal donors' PB cells were depleted of adherent cells by incubation on plastic Petri dishes with 10 % fetal calf serum for 90 min. at 37°C. […]\nCell Culture Procedure: 2 x 10⁵ T-depleted cells were incubated with 40 % RPMI-methylcellulose, 20 % PHA-LCM, 10 % FCS, irradiated feeder cells (10⁵/dish), 16.6 % RPMI in 35 mm Petri dishes. […] Colonies were counted at day 4. […] For control, 2 x 10⁵ irradiated feeder cells were cultured in the same assay system in each experiment to exclude their potential for colony formation Immunocytochemical Method: The cell surface antigens of air dried smears were detected using monoclonal antibodies and intestinal alkaline phosphatase, as previously described. […]"}, "Lewis lung carcinoma": {"system": "Lewis lung carcinoma", "assay": "Tumour growth and metastases of Lewis lung carcinoma in mice", "format": "in vivo", "conditions": "11 injections", "protocol": "Female C57B16 mice (10 mice/group, 18-22 g body weight) were i.m. injected into the left hind leg with 0.1 ml of a tumour cell suspension of Lewis lung carcinoma (day 0).\nNine groups of animals were investigated. The test compounds were s.c. administered as follows: physiological saline: once daily for eleven days starting from day 0 up to day 10. DFO: 0.5 ml in distilled water in a dose of 10 and 30 mg/kg once daily for eleven days, on day 0 up to day 10 after tumour inocculation. 10-EDAM: 0.5 ml in distilled water in a dose of 3 and 6 mg/kg, once daily on days 1, 3, 5, 7 and 9 after tumour inocculation.\nBoth hind legs were removed from the body, weighed, and the difference between the tumour bearing and the tumour free leg was taken as the tumour weight of one idividual mouse.\nLungs were filled up with Pelikan-ink via the trachea, fixed in Fekete-solution and metastases (white spot on black back-ground) on the lung surface were counted microscopically."}}, "data": [{"smiles": "CC(=O)N(O)CCCCCNC(=O)CCC(=O)N(O)CCCCCNC(=O)CCC(=O)N(O)CCCCCN", "note": "[DFO, desferioxamine methanesulfonate]", "values": [{"measurement": "inhibition at 2.15 µM", "setting": "patient's PB blast cells; 2.15 µM DFO, read-out: reduction in blast colonies", "result": 70, "unit": "%"}, {"measurement": "minimal effective concentration", "setting": "patient's PB blast cells; patient's PB blast cells, read-out: DFO concentrations with significant decline in blast colonies", "result": "> 1.25", "unit": "µM"}, {"measurement": "Number of lung metastases % of control", "setting": "Lewis lung carcinoma; group 2: DFO 10 mg/kg s.c.", "result": 103, "unit": "%"}, {"measurement": "Number of lung metastases x̄ ± SD", "setting": "Lewis lung carcinoma; group 2: DFO 10 mg/kg s.c.", "result": "69 ± 26"}, {"measurement": "Tumour weight % of control", "setting": "Lewis lung carcinoma; group 2: DFO 10 mg/kg s.c.", "result": 100, "unit": "%"}, {"measurement": "Tumour weight x̄ ± SD", "setting": "Lewis lung carcinoma; group 2: DFO 10 mg/kg s.c.", "result": "7.56 ± 0.32", "unit": "g"}, {"measurement": "Number of lung metastases % of control", "setting": "Lewis lung carcinoma; group 3: DFO 30 mg/kg s.c.", "result": 78, "unit": "%"}, {"measurement": "Number of lung metastases x̄ ± SD", "setting": "Lewis lung carcinoma; group 3: DFO 30 mg/kg s.c.", "result": "52 ± 16"}, {"measurement": "Tumour weight % of control", "setting": "Lewis lung carcinoma; group 3: DFO 30 mg/kg s.c.", "result": 106, "unit": "%"}, {"measurement": "Tumour weight x̄ ± SD", "setting": "Lewis lung carcinoma; group 3: DFO 30 mg/kg s.c.", "result": "7.99 ± 0.42", "unit": "g"}]}]}
